Assay results taken from ChEMBL document CHEMBL2321869, “Ion channels as therapeutic targets: a drug discovery perspective” (J Med Chem, 2013).

Legend:
[1] = Agonist activity at AMPA receptor in rat DRG neurons by patch clamp technique; details: DRG neuron
[2] = Agonist activity at AMPA receptor in rat hippocampal neurons by patch clamp technique; type: tissue-based; details: Hippocampus
[3] = target: Gamma-aminobutyric acid receptor subunit alpha-5 (Homo sapiens) (UniProt P31644); assay: Positive allosteric modulation of GABAA alpha5 (unknown origin) relative to control
[4] = target: Gamma-aminobutyric acid receptor subunit alpha-3 (Homo sapiens) (UniProt P34903); assay: Positive allosteric modulation of GABAA alpha3 (unknown origin) relative to control
[5] = target: T1, Gamma-aminobutyric acid receptor subunit alpha-2 (Homo sapiens) (UniProt P47869); assay: Positive allosteric modulation of GABAA alpha2 (unknown origin) relative to control
T1 sequence (whole entry): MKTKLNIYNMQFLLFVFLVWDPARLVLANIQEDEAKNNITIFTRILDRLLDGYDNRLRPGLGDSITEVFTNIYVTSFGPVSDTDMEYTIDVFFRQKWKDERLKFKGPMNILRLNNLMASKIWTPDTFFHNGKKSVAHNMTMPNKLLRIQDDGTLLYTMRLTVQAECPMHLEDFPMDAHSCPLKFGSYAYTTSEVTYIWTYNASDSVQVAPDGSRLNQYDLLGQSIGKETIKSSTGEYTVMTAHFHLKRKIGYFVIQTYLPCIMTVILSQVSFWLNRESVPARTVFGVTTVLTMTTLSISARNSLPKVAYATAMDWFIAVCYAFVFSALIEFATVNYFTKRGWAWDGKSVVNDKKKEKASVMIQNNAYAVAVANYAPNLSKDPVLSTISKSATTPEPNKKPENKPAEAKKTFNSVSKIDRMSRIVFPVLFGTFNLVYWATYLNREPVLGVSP

[6] = target: T2, Gamma-aminobutyric acid receptor subunit alpha-5 (Homo sapiens, UniProt P31644); assay: Positive allosteric modulation of GABAA alpha5 (unknown origin)
T2 sequence (P31644 whole entry): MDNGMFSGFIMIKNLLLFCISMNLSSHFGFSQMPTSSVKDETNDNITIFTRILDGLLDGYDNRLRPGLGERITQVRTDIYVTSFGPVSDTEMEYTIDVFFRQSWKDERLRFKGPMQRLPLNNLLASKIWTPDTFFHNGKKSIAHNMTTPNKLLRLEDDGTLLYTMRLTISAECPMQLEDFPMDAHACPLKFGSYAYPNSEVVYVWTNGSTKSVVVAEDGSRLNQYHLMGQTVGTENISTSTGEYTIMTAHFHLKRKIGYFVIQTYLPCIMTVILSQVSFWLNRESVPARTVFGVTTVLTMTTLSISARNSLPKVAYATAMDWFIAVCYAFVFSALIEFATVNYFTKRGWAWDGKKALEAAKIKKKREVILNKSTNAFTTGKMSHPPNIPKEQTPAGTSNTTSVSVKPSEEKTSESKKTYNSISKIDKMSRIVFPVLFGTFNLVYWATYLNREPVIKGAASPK

[7] = target: T3, Gamma-aminobutyric acid receptor subunit alpha-2 (Homo sapiens, UniProt P47869); assay: Positive allosteric modulation of GABAA alpha2 (unknown origin)
T3 sequence (P47869 whole entry): T1 sequence (whole entry)

[8] = target: T4, Gamma-aminobutyric acid receptor subunit alpha-3 (Homo sapiens, UniProt P34903); assay: Positive allosteric modulation of GABAA alpha3 (unknown origin)
T4 sequence (P34903 whole entry): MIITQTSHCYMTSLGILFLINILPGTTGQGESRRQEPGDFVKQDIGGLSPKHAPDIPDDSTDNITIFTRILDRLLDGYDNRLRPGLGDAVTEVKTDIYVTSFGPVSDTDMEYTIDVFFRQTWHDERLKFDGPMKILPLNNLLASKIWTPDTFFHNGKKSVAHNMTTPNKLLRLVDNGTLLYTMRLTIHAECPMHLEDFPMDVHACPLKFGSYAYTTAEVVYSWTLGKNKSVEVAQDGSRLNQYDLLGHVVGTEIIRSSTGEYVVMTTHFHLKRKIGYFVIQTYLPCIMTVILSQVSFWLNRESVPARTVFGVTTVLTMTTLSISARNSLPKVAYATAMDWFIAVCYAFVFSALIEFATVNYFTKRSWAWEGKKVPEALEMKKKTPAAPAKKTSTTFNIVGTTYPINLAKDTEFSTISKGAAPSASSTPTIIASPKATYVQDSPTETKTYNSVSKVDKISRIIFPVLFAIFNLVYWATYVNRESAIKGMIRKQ

[9] = target: T5, Gamma-aminobutyric acid receptor subunit alpha-1 (Homo sapiens, UniProt P14867); assay: Positive allosteric modulation of GABAA alpha1 (unknown origin)
T5 sequence (P14867 whole entry): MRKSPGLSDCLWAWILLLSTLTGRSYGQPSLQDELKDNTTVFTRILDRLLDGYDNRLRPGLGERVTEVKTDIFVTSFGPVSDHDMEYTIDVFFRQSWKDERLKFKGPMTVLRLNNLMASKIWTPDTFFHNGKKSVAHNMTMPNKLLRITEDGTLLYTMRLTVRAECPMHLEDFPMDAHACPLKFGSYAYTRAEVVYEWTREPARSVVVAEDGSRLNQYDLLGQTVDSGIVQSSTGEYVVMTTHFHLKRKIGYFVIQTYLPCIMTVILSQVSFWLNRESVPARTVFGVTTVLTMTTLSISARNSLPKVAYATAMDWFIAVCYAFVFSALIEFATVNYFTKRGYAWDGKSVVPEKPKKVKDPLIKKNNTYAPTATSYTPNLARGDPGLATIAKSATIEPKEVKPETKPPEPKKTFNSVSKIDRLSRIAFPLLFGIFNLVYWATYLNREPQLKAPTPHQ

[10] = target: Voltage-gated potassium channel KCNC1 (Rattus norvegicus, UniProt P25122); assay: Inhibition of rat voltage-gated K channel 3.1 expressed in CHO cells by patch clamp assay; type: cell-based
[11] = species: Homo sapiens; assay: Selectivity ratio of IC50 for human voltage-gated Na channel 1.7 to IC50 for human voltage-gated Na channel 1.8
[12] = species: Homo sapiens; assay: Selectivity ratio of IC50 for human voltage-gated Na channel 1.1 to IC50 for human voltage-gated Na channel 1.8
[13] = species: Homo sapiens; assay: Selectivity ratio of IC50 for human voltage-gated Na channel 1.5 to IC50 for human voltage-gated Na channel 1.8
[14] = species: Rattus norvegicus; assay: Selectivity ratio of EC50 for AMPA receptor in rat hippocampal neurons to EC50 for AMPA receptor in rat DRG neurons; type: tissue-based; details: Hippocampus
[15] = target: P2X2/P2X3 heterotrimeric receptor (Homo sapiens, UniProt P56373+Q9UBL9); assay: Antagonist activity at human P2X2/3 receptor; type: protein-complex assay
[16] = target: Potassium voltage-gated channel subfamily KQT member 5 (Homo sapiens, UniProt Q9NR82); assay: Positive modulatory activity at voltage-gated K channel 7.5 (unknown origin)
[17] = target: Potassium voltage-gated channel subfamily KQT member 3 (Homo sapiens, UniProt O43525); assay: Positive modulatory activity at voltage-gated K channel 7.3 (unknown origin)
[18] = target: Potassium voltage-gated channel subfamily KQT member 2 (Homo sapiens, UniProt O43526); assay: Positive modulatory activity at voltage-gated K channel 7.2 (unknown origin)
[19] = target: Potassium voltage-gated channel subfamily KQT member 4 (Homo sapiens, UniProt P56696); assay: Positive modulatory activity at voltage-gated K channel 7.4 (unknown origin)
[20] = target: Calcium-activated potassium channel subunit alpha-1 (Homo sapiens, UniProt Q12791); assay: Positive modulation of Kca 1.1 (unknown origin)
[21] = target: Potassium channel subfamily K member 3 (Homo sapiens, UniProt O14649); assay: Inhibition of TASK-1 (unknown origin)
[22] = Blockade of ASIC (unknown origin); design: species or system Homo sapiens
[23] = target: T6, Glutamate receptor ionotropic, kainate 1 (Homo sapiens, UniProt P39086); assay: Agonist activity at GluK1 (unknown origin)
[24] = target: T7, Potassium channel subfamily K member 2 (Homo sapiens, UniProt O95069); assay: Inhibition of human TREK-1 expressed in HEK293 cells by patch-clamp technique; type: cell-based
[25] = target: Acid-sensing ion channel 3 (Rattus norvegicus, UniProt O35240); assay: Inhibition of ASIC3 in rat DRG neurons
[26] = Inhibition of AMPA receptor (unknown origin); design: species or system Homo sapiens
[27] = target: T6, Glutamate receptor ionotropic, kainate 1; assay: Inhibition of GluK1 receptor (unknown origin)
[28] = species: Mus musculus; assay: Selectivity ratio of EC50 for mouse voltage-gated K channel 1.3 to EC50 for mouse voltage-gated K channel 1.7
[29] = Selectivity ratio of EC50 for mouse voltage-gated K channel 1.3 to EC50 for rat voltage-gated K channel 1.2
[30] = Selectivity ratio of EC50 for mouse voltage-gated K channel 1.3 to EC50 for human voltage-gated K channel 1.4
[31] = species: Mus musculus; assay: Selectivity ratio of EC50 for mouse voltage-gated K channel 1.3 to EC50 for mouse voltage-gated K channel 1.1
[32] = target: Neuronal acetylcholine receptor; alpha4/beta2 (Homo sapiens, UniProt P17787+P43681); assay: Agonist activity at human alpha4beta2 nAChR expressed in HEK293 cells incubated for 5 mins measured every second for 1 mins followed by every 5 secs for 4 mins by calcium flux assay; type: cell-based
[33] = target: Transient receptor potential cation channel subfamily V member 4 (Homo sapiens, UniProt Q9HBA0); assay: Inhibition of TRPV4 (unknown origin)
[34] = target: Gamma-aminobutyric acid receptor subunit alpha-1 (Homo sapiens) (UniProt P14867); assay: Positive allosteric modulation of GABAA alpha1 (unknown origin) relative to control
[35] = target: T7, Potassium channel subfamily K member 2; assay: Inhibition of TREK-1 (unknown origin)
[36] = target: Small conductance calcium-activated potassium channel protein 3 (Homo sapiens, UniProt Q9UGI6); assay: Inhibition of human Kca 2.3 expressed in HEK293 cells by patch clamp technique; type: cell-based
[37] = species: Rattus norvegicus; assay: Selectivity ratio of EC50 for AMPA receptor in rat DRG neurons to EC50 for AMPA receptor in rat hippocampal neurons; type: tissue-based; details: Hippocampus
[38] = target: Inward rectifier potassium channel 2 (Mus musculus, UniProt P35561); assay: Inhibition of mouse Kir2.1 expressed in HEK293 cells by patch clamp technique; type: cell-based
[39] = target: Inward rectifier potassium channel 4 (Homo sapiens, UniProt P48050); assay: Inhibition of Kir2.3 (unknown origin)

T7 sequence (O95069 whole entry): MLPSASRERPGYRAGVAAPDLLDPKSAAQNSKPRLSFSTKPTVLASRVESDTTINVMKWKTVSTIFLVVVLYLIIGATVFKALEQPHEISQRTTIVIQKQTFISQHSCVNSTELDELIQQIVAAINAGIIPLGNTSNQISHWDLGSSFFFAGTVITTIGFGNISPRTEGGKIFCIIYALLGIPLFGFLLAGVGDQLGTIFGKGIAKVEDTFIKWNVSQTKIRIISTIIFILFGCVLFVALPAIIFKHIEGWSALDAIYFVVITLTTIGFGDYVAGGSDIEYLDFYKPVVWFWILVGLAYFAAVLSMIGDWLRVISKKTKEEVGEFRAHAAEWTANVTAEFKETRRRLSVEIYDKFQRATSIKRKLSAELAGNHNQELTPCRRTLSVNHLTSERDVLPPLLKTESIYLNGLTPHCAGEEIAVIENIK
Sequence of P2X2/P2X3 heterotrimeric receptor (Q9UBL9 whole entry): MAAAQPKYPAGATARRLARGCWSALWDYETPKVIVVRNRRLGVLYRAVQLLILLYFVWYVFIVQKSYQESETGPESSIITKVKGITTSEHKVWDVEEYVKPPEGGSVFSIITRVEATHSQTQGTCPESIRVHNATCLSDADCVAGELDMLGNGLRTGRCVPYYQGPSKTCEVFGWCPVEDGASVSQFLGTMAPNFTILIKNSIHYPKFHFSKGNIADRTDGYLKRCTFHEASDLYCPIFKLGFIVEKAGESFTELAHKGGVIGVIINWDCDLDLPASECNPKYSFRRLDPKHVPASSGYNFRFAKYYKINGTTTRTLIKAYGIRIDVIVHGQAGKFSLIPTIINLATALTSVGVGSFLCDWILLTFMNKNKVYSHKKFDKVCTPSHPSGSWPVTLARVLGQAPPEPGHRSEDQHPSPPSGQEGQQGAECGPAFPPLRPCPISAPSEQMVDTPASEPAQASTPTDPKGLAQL
Sequence of P2X2/P2X3 heterotrimeric receptor (P56373 whole entry): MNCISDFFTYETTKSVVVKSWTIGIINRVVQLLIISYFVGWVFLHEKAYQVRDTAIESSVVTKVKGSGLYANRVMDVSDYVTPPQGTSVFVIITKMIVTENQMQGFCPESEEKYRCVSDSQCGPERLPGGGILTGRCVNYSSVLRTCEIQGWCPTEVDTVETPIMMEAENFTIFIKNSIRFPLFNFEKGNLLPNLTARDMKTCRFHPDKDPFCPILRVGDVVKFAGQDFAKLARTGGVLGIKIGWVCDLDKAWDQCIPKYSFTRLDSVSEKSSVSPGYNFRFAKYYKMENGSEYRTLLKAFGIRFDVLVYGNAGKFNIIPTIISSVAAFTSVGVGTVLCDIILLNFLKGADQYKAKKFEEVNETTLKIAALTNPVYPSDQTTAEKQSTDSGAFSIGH
T6 sequence (P39086 whole entry): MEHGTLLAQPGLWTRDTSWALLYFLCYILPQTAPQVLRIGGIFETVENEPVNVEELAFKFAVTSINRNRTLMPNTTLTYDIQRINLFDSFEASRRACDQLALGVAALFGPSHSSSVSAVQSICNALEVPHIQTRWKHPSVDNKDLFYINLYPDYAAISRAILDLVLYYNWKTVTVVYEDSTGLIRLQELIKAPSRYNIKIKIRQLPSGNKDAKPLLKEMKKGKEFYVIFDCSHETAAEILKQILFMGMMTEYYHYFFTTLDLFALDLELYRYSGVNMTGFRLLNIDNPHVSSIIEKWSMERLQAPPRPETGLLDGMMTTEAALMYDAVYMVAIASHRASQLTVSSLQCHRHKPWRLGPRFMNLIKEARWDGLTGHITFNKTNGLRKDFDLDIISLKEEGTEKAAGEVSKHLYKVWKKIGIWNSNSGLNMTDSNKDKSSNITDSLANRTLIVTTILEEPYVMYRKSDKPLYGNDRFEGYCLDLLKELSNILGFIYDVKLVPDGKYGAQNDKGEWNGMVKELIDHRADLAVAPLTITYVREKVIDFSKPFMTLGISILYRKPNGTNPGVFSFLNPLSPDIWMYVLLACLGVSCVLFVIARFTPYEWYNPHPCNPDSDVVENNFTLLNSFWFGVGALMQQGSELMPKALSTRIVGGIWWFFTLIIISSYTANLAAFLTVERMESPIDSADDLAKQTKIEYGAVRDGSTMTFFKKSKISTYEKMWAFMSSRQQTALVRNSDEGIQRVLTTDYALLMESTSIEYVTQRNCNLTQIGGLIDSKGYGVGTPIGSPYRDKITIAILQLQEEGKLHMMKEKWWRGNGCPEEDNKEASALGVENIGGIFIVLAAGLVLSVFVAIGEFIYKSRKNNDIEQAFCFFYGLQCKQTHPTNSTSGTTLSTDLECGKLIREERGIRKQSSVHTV
Sequence of Voltage-gated potassium channel KCNC1 (P25122 whole entry): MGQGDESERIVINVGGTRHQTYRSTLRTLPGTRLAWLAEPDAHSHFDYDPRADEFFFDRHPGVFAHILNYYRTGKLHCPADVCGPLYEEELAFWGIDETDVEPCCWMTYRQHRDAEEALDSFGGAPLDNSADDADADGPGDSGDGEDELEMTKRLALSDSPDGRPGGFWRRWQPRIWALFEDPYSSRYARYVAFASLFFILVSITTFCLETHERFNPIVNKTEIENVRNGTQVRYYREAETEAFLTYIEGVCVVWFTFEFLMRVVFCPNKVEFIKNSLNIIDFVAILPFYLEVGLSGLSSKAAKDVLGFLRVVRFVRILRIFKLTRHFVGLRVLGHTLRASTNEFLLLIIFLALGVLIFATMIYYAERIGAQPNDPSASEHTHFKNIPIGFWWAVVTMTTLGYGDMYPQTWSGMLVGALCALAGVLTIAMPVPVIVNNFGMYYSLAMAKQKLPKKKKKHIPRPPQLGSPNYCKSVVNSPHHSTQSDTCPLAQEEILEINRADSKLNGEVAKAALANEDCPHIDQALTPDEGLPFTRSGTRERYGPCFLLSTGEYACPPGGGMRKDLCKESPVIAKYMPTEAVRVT
Sequence of Inward rectifier potassium channel 2 (P35561 whole entry): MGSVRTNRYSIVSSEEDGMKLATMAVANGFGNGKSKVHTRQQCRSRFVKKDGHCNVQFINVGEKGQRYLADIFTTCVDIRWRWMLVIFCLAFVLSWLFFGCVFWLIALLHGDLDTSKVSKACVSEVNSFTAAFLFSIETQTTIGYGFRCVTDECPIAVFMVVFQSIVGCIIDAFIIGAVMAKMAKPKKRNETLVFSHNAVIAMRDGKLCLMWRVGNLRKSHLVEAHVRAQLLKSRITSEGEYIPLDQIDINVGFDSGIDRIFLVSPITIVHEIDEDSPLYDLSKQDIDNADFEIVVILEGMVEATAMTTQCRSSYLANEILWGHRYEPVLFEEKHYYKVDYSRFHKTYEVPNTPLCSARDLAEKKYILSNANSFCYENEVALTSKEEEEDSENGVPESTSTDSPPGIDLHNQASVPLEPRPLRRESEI
Sequence of Potassium voltage-gated channel subfamily KQT member 5 (Q9NR82 whole entry): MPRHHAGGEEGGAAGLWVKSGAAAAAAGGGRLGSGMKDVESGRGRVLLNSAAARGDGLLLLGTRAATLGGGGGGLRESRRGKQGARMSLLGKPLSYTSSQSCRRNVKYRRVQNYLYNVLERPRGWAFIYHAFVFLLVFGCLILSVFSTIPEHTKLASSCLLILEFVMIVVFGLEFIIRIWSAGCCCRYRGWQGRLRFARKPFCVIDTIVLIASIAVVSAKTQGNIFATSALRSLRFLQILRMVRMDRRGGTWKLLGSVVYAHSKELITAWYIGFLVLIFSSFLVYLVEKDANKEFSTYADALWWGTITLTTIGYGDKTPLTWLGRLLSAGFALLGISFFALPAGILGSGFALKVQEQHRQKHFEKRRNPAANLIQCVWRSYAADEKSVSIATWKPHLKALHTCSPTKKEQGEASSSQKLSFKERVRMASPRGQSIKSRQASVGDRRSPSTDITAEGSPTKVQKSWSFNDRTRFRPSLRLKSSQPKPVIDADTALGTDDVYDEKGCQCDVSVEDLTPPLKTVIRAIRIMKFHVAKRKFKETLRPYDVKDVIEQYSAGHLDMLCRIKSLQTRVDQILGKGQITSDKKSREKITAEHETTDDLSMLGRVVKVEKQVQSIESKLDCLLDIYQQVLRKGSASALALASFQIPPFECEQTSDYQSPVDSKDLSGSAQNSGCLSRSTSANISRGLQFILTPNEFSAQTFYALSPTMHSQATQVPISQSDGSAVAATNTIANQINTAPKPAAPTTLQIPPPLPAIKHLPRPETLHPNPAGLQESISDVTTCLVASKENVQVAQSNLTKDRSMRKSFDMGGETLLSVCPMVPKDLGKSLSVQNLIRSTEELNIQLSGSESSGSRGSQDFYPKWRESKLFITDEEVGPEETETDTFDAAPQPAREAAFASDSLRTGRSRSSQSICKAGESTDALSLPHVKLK
Sequence of Potassium voltage-gated channel subfamily KQT member 2 (O43526 whole entry): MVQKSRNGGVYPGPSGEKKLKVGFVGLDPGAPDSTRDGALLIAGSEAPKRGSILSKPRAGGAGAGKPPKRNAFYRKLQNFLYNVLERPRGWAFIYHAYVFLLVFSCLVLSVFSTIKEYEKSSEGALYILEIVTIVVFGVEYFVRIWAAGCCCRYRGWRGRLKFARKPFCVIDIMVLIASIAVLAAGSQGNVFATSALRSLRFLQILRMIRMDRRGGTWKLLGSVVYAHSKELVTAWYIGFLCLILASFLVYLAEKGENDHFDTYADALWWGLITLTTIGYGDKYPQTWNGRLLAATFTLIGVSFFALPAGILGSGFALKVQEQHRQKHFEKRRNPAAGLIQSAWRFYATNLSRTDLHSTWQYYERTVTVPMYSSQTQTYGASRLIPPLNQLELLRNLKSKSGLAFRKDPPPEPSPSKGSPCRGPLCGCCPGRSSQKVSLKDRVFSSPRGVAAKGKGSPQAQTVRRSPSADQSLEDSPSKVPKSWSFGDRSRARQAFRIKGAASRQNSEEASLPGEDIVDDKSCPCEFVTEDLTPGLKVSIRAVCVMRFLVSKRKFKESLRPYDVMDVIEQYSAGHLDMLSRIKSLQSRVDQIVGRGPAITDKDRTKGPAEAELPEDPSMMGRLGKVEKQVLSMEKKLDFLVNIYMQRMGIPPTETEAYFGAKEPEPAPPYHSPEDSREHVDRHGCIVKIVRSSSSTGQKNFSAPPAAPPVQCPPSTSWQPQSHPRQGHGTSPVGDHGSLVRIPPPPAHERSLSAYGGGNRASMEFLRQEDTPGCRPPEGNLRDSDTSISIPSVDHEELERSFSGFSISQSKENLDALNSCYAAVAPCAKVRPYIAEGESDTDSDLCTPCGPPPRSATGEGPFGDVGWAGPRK

N[C@@H](Cn1cc(Cl)c(=O)[nH]c1=O)C(=O)O
EC50 [1]: 2 µM
EC50 [2]: 2 µM

Cn1ncnc1COc1nn2c(-c3cc(F)ccc3F)nnc2cc1C(C)(C)C
Activity [3]: 36%
Activity [4]: 39%
Activity [5]: 34%
Ki [6]: 0.0023 µM
Ki [7]: 0.0007 µM
Ki [8]: 0.0007 µM

Cc1csc(-c2cc(-c3ccncc3)c3n(c2=O)CCCc2ccncc2-3)n1
Activity [5]: 37%
Ki [9]: 0.0013 µM
Ki [7]: 0.0006 µM
Ki [8]: 0.0005 µM

NCCC(Oc1ccc(C(F)(F)F)cc1)c1ccccc1 (stereo unspecified) [NORFLUOXETINE]
IC50 [10]: 0.8 µM

Cc1nocc1C(=O)Nc1ccc(-c2ccccc2OC(F)(F)F)c(N)n1
Ratio IC50 [11]: > 20
Ratio IC50 [12]: > 20
Ratio IC50 [13]: > 20

N[C@@H](Cn1cc(I)c(=O)[nH]c1=O)C(=O)O
Ratio EC50 [14]: 137
EC50 [1]: 0.14 µM

Cc1ccc(-c2cc(C(=O)N[C@H](C)c3ccc(F)cn3)cc(-c3ncccc3F)c2)nc1
IC50 [15]: 8 µM

COc1ccc(Cl)cc1[C@]1(F)C(=O)Nc2cc(C(F)(F)F)ccc21 [FLINDOKALNER]
EC50 [16]: 2.4 µM
EC50 [17]: 2.4 µM
EC50 [18]: 2.4 µM
EC50 [19]: 2.4 µM
EC50 [20]: 0.352 µM

CCCC(=O)C1CCN(c2ncnc3c2CN(C(=O)c2ccc(-c4ccccc4)cc2)CC3)CC1
IC50 [21]: 0.3 µM

N=C(N)NC(=O)c1nc(Cl)c(N)nc1N [AMILORIDE]
IC50 [22]: 10 µM

CC(C)(C)c1s[nH]c(=O)c1C[C@H](N)C(=O)O
EC50 [23]: 0.1 µM

CCN(CC)CC(=O)Nc1c(C)cccc1C [LIDOCAINE]
IC50 [24]: 180 µM

CC(C)C1c2cc(C3CC3c3ccc4cc(C(=N)N)ccc4c3)ccc2CCN1C (stereo unspecified)
IC50 [25]: 9.5 µM

O=C(O)[C@@H]1C[C@H]2C[C@@H](CCc3nn[nH]n3)CC[C@H]2CN1 [TEZAMPANEL ANHYDROUS]
IC50 [26]: 0.5 µM
IC50 [27]: 0.5 µM

CNCCC(Oc1ccc(C(F)(F)F)cc1)c1ccccc1 (stereo unspecified) [FLUOXETINE]
IC50 [10]: 13.1 µM

O=c1ccc2c(OCCCCc3ccccc3)c3ccoc3cc2o1
Ratio EC50 [28]: 17
Ratio EC50 [29]: 17
Ratio EC50 [30]: 17
Ratio EC50 [31]: 17

CN[C@@H](C)C/C=C/c1cncc(OC(C)C)c1 [ISPRONICLINE]
EC50 [32]: 0.106 µM

CC(C)NCCN(C(C)C)S(=O)(=O)c1ccc(Cl)cc1Cl
IC50 [33]: 2.3 µM

Cc1cc(-c2nncc3c(C(C)(C)C)c(OCc4ncnn4C)nn23)no1
Activity [34]: 23%
Activity [4]: -15%
Activity [5]: 4%
Ki [9]: 0.0008 µM
Ki [6]: 0.0014 µM
Ki [7]: 0.0008 µM
Ki [8]: 0.0008 µM

CCc1nnnn1-c1cc(C(=O)NC(C)c2cnccn2)cc(-c2ccc(C)cc2)c1 (stereo unspecified)
IC50 [15]: 8 µM

CCOC(=O)c1ncn2c1[C@@H]1CCCN1C(=O)c1cc(OC)ccc1-2
Ki [9]: 0.049 µM
Ki [6]: 0.00045 µM
Ki [7]: 0.027 µM
Ki [8]: 0.025 µM

CCOC(=O)C1=C(COCCN)NC(C)=C(C(=O)OC)C1c1ccccc1Cl (stereo unspecified) [AMLODIPINE]
IC50 [35]: 0.4 µM

Cc1ccn(-c2nc(Nc3ccc(F)cc3)c3ncn(C)c3n2)n1
EC50 [36]: 0.02 µM

N[C@@H](Cn1cc(F)c(=O)[nH]c1=O)C(=O)O
Ratio EC50 [37]: 46
EC50 [2]: 1.5 µM

COc1ccc(CNCc2cccc3ccccc23)cc1
IC50 [38]: 1.8 µM

N=c1n(Cc2ccccc2)c2ccccc2n1CC(O)CN1CCOCC1 (stereo unspecified)
IC50 [39]: 24 µM
